Literature values in patent US20030229111A1, “Naltrexone hydrochloride compositions” (priority 2002, published 2003).

What was measured:
[1] = in vivo, po

## O=C1CC[C@@]2(O)[C@H]3Cc4ccc(O)c5c4[C@@]2(CCN3CC2CC2)[C@H]1O5 [naltrexone, Naltrexone]
other
  protein binding: approximately 21%
[1]
  time within which rapidly absorbed: ≤ 1 h
